In publication PMC6635429, “A 4-cyano-3-methylisoquinoline inhibitor of Plasmodium falciparum growth targets the sodium efflux pump PfATP4” (Scientific Reports, 2019):

Tests used:
Assay type in all cases: biochemical
PfATP4 [1] = molecular target: T1, PfATP4 (Plasmodium falciparum, UniProt A0A143ZZK9); assay: cipargamin-sensitive Na+-dependent ATPase activity (Pi release) in parasite membranes
T1 construct: gene ATP4; native PfATP4 in P. falciparum membrane preparations (3D7)

PfATP4 [2] = molecular target: T1, PfATP4; assay: cipargamin-sensitive Na+-dependent ATPase activity (Pi release) in parasite membranes; resistance mutation S374R
PfATP4 [3] = molecular target: T2, PfATP4 (Plasmodium falciparum, UniProt A0A143ZZK9, S374R); assay: cipargamin-sensitive Na+-dependent ATPase activity (Pi release) in membranes of resistant parasites
T2 construct: gene ATP4; PfATP4 S374R in membranes from B7 parasites
T2 sequence (A0A143ZZK9 1-1264 S374R): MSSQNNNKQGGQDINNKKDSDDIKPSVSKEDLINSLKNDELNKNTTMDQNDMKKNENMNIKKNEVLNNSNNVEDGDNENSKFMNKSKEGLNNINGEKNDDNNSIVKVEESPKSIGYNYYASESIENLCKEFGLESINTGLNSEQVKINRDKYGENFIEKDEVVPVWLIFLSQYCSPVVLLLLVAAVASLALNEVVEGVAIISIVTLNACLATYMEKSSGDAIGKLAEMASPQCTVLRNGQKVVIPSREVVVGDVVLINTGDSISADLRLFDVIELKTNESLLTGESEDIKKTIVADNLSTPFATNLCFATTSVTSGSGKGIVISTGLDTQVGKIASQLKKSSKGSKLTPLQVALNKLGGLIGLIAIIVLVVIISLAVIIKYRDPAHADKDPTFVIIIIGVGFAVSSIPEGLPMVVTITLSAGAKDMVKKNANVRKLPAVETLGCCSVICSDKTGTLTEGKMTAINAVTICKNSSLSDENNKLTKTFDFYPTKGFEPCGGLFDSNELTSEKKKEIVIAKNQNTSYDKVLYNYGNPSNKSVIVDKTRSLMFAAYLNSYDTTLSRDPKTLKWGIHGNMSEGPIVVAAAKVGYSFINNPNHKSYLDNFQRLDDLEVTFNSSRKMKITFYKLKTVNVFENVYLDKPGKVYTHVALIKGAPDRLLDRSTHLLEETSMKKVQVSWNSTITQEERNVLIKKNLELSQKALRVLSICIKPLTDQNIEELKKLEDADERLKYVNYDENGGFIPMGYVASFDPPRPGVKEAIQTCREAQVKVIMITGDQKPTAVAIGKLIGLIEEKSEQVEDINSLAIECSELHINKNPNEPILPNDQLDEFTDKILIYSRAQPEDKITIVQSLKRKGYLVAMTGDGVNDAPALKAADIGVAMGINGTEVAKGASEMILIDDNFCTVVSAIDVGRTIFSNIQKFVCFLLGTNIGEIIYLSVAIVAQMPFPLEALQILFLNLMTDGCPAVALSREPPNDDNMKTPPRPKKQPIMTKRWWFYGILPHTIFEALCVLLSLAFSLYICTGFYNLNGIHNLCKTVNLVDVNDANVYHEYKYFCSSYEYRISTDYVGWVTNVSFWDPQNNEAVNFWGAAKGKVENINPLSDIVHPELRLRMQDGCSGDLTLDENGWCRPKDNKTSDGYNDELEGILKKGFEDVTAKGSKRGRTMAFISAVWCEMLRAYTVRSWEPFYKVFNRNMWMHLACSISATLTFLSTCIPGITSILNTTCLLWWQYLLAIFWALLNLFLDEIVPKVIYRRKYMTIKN

Cc1nc(N[C@@H](C)c2ccccc2)c2ccccc2c1C#N [MB10]
IC50 (PfATP4 [1]): 62 ± 9 nM

CCC(CC)Nc1nc(C)c(C#N)c2ccccc12 [MB14, 3-methyl-1-(1-ethylpropylamino)isoquinoline-4-carbonitrile]
IC50 (PfATP4 [2]): 52 ± 16 nM | IC50 (PfATP4 [3]): 429 ± 73 nM
